In brackets after ≈: the same amount, converted by molar mass.
What was measured:
Format in all cases: cell-based, Mycoplasma pneumoniae
[1] = test system: M. pneumoniae thyA mutant (lacking TS activity); test: microbe, parasite or virus in culture; details: minimal concentration producing 90% inhibition; thyA mutant Mpn
Experimental: (§1) A series dilution of each compound in Mycoplasma growth medium was added to Mpn cultures in 96-well plates. The plates were sealed and incubated at 37°C. Mpn growth was monitored by using growth index value e.g. the ratio of absorbance at 450 nm and 560 nm of the culture medium. Thirty nucleoside and nucleobase analogs and a nucleoside transporter inhibitor were included, and two Mpn strains, wild type and a thyA mutant (lacking TS activity), were used.
(§2) Nucleoside and nucleobase analogs were dissolved in dimethyl sulfoxide (DMSO) as stock solutions and diluted with Mpn culture medium to the desired concentration immediately prior to use.
(§3) Mpn laboratory strain M129 wild type and a thyA mutant strain [31] were used in this study. Mpn was cultured at 37°C in a CO2 incubator using 75 cm^2 tissue culture flasks containing 50 ml Hayflick’s medium, and harvested at day 4 when the medium color change was observed. The cells were harvested and the pellet was resuspended in 6 ml fresh medium and the cfu/ml was determined by serial dilution (10-fold) and plating on broth agar plate. Colonies was counted and cfu/ml was calculated.
(§4) Inhibition studies were performed in 96-well plates containing 200 μl Mpn culture (approximately 10^6 cfu ml^-1) in Hayflick’s medium and 200 μl each compound in series dilutions (2-fold) with the growth medium, with three to four replicas. The plates were sealed with clear adhesive sheets and incubated at 37°C incubator. Absorbance ratio at 450 nm and 560 nm was used as Mpn growth index, which was measured daily, and by visual detection for at least 8 days, as previously described. […] The MICs (minimal inhibitory concentration required to inhibit Mpn growth to 90%) were determined as the lowest concentration at which the growth index was ≈ 10% of the control values (at the time when the control culture medium color turned yellow), essentially as described.

[2] = test system: Mpn wild type cells; test: Uptake and metabolism of tritium labelled natural nucleoside and nucleobases in the presence of analogs
Experimental: The cells were harvested and analyzed essentially as described. Analogs used were dipyridamole, 6-thioguanine (6-TG), trifluorothymidine (TFT), gemcitabine (dFdC) and 5-fluorodeoxyuridine (5FdU). Total uptake is the percent of radioactivity recovered in the cells divided by total radioactivity added to the growth medium. Percent of acid insoluble (radioactivity found in DNA and RNA) was also calculated. These experiments were done more than three times and data are given as mean ± SD.

[3] = test system: M. pneumoniae wild type (laboratory strain M129); test: Mpn growth inhibition in 96-well plates (growth index A450/A560), wild type strain; details: for MIC (Mpn growth): as stated in the text, strain not specified, 90% growth inhibition
Experimental: as §1, §2, §3, §4

[4] = 10 μM analog, 70 hours, 37°C, radioactivity in cells / total added
[5] = 10 μM analog, 70 hours, acid insoluble fraction / total in cells

O=c1[nH]c(=O)n([C@H]2C[C@H](O)[C@@H](CO)O2)cc1C(F)(F)F [Trifluorothymidine (TFT), Trifluorothymidine]
thyA mutant MIC [1]: 1.8 µg/mL
Stimulation of [3H]-dT uptake ([2]; 10 μM analog versus control): 2 fold
[3H]-Ade Total uptake [2, 4]: 0.43±0.01%
[3H]-Gua Total uptake [2, 4]: 0.19±0.02%
[3H]-Hx Total uptake [2, 4]: 0.011± 0.001%
[3H]-Ura Total uptake [2, 4]: 0.11±0.002%
[3H]-dT Total uptake [2, 4]: 18.2±0.6%
[3H]-Ade Incorporation [2, 5]: 48±2%
[3H]-Gua Incorporation [2, 5]: 85±4%
[3H]-Hx Incorporation [2, 5]: 67±1%
[3H]-Ura Incorporation [2, 5]: 27±0.2%
[3H]-dT Incorporation [2, 5]: 97.4±0.5%
MIC (Mpn growth) ([3]; listed as trifluorothymidine): approximately 2 μg ml^-1
MIC (Mpn growth) ([3]; listed as trifluorothymidine (TFT)): 1.8 µg/mL (≈ 6.08 µM)
Wild type MIC ([3]; minimal concentration producing 90% inhibition, wild type Mpn): 1.8 µg/mL

Reference: paper PMC3750255, “Inhibition of Mycoplasma pneumoniae growth by FDA-approved anticancer and antiviral nucleoside and nucleobase analogs” (BMC Microbiology, 2013)
